Results taken from PubChem BioAssay (NCI).
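Exposure lasted 48 hours, with cells grown in 96-well plates and compounds tested at five concentrations. Definition used: TGI = concentration required for complete inhibition of growth.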

Assays:
Assay in all cases: growth of human tumour cells (NCI), 48 h
[1] = test system: UACC-62 melanoma
[2] = test system: M14 melanoma
[3] = test system: CAKI-1 renal
[4] = test system: CCRF-CEM leukemia
[5] = test system: OVCAR-8 ovarian
[6] = test system: SN12C renal
[7] = test system: HOP-62 NSCLC
[8] = test system: A498 renal
[9] = test system: HT29 colon
[10] = test system: NCI-H522 lung
[11] = test system: HL-60(TB) leukemia
[12] = test system: RPMI-8226 leukemia
[13] = test system: A549 NSCLC
[14] = test system: SW-620 colon
[15] = test system: SNB-19 CNS
[16] = test system: LOX IMVI melanoma
[17] = test system: HOP-18 NSCLC
[18] = test system: DMS 273 small cell lung
[19] = test system: TK-10 renal
[20] = test system: MALME-3M melanoma
[21] = test system: IGROV1 ovarian
[22] = test system: SK-MEL-5 melanoma
[23] = test system: MOLT-4 leukemia
[24] = test system: 786-0 renal
[25] = test system: NCI-H23 lung
[26] = test system: UO-31 renal
[27] = test system: HCT-116 colon
[28] = test system: SK-MEL-28 melanoma
[29] = test system: ACHN renal
[30] = test system: RXF 393 renal
[31] = test system: U251 CNS
[32] = test system: K-562 leukemia
[33] = test system: OVCAR-4 ovarian
[34] = test system: SNB-75 CNS
[35] = test system: SK-MEL-2 melanoma
[36] = test system: DLD-1 colon
[37] = test system: KM12 colon
[38] = test system: OVCAR-5 ovarian
[39] = test system: HOP-92 NSCLC
[40] = test system: SF-539 CNS
[41] = test system: SF-295 CNS
[42] = test system: HCC-2998 colon
[43] = test system: DMS 114 small cell lung
[44] = test system: OVCAR-3 ovarian
[45] = test system: HCT-15 colon
[46] = test system: LXFL 529 NSCLC
[47] = test system: COLO 205 colon
[48] = test system: SK-OV-3 ovarian
[49] = test system: M19-MEL melanoma
[50] = test system: SF-268 CNS
[51] = test system: UACC-257 melanoma
[52] = test system: NCI-H226 lung
[53] = test system: SNB-78 CNS
[54] = test system: NCI-H460 lung
[55] = test system: SR leukemia
[56] = test system: EKVX NSCLC

## CC(C1=CC=C2[C@@H]3CCC4CC(N(C)C)CC[C@]4(C)C3CC[C@]12C)N(C)C=O (some centres not stated)
[1]
  TGI: > 100 µM
[2]
  TGI: > 100 µM
[3]
  TGI: > 100 µM
[4]
  TGI: > 100 µM
[5]
  TGI: > 100 µM
[6]
  TGI: > 100 µM
[7]
  TGI: > 100 µM
[8]
  TGI: > 100 µM
[9]
  TGI: > 100 µM
[10]
  TGI: > 100 µM
[11]
  TGI: > 100 µM
[12]
  TGI: > 100 µM
[13]
  TGI: > 100 µM
[14]
  TGI: > 100 µM
[15]
  TGI: > 100 µM
[16]
  TGI: > 100 µM
[17]
  TGI: > 100 µM
[18]
  TGI: > 100 µM
[19]
  TGI: > 100 µM
[20]
  TGI: > 100 µM
[21]
  TGI: > 100 µM
[22]
  TGI: > 100 µM
[23]
  TGI: > 100 µM
[24]
  TGI: > 100 µM
[25]
  TGI: > 100 µM
[26]
  TGI: > 100 µM
[27]
  TGI: > 100 µM
[28]
  TGI: > 100 µM
[29]
  TGI: > 100 µM
[30]
  TGI: > 100 µM
[31]
  TGI: > 100 µM
[32]
  TGI: > 100 µM
[33]
  TGI: > 100 µM
[34]
  TGI: > 100 µM
[35]
  TGI: > 100 µM
[36]
  TGI: > 100 µM
[37]
  TGI: > 100 µM
[38]
  TGI: > 100 µM
[39]
  TGI: > 100 µM
[40]
  TGI: > 100 µM
[41]
  TGI: > 100 µM
[42]
  TGI: > 100 µM
[43]
  TGI: > 100 µM
[44]
  TGI: > 100 µM
[45]
  TGI: > 100 µM
[46]
  TGI: > 100 µM
[47]
  TGI: > 100 µM
[48]
  TGI: > 100 µM
[49]
  TGI: > 100 µM
[50]
  TGI: > 100 µM

## CC(=O)NC1=C(C)C(=O)c2c(nc3n2CCC3OC(=O)CCl)C1=O (configuration not stated)
[51]
  TGI: 25.5 µM
[1]
  TGI: 6.33 µM
[2]
  TGI: 32.2 µM
[3]
  TGI: 35.2 µM
[4]
  TGI: 4.52 µM
[5]
  TGI: 16.6 µM
[6]
  TGI: 24.1 µM
[7]
  TGI: 31.6 µM
[8]
  TGI: 27.4 µM
[9]
  TGI: 30.3 µM
[10]
  TGI: 11.9 µM
[11]
  TGI: 8.58 µM
[12]
  TGI: > 100 µM
[13]
  TGI: 26 µM
[14]
  TGI: 22.6 µM
[15]
  TGI: 32.1 µM
[16]
  TGI: 16.8 µM
[18]
  TGI: 33.6 µM
[19]
  TGI: 43.1 µM
[20]
  TGI: 16.6 µM
[21]
  TGI: 25.2 µM
[22]
  TGI: 25.4 µM
[23]
  TGI: 4.48 µM
[24]
  TGI: 21.6 µM
[25]
  TGI: 26.1 µM
[26]
  TGI: 31.9 µM
[27]
  TGI: 5.57 µM
[28]
  TGI: 31.4 µM
[29]
  TGI: 42.5 µM
[30]
  TGI: 18.1 µM
[52]
  TGI: 7.01 µM
[53]
  TGI: 6.5 µM
[31]
  TGI: 11.8 µM
[32]
  TGI: 5.73 µM
[33]
  TGI: 4.19 µM
[34]
  TGI: 30.1 µM
[35]
  TGI: 10.2 µM
[36]
  TGI: 29.7 µM
[54]
  TGI: 56.2 µM
[55]
  TGI: > 100 µM
[37]
  TGI: 29.5 µM
[38]
  TGI: 25.5 µM
[39]
  TGI: 5.15 µM
[40]
  TGI: 6.47 µM
[41]
  TGI: 29.9 µM
[42]
  TGI: 25.7 µM
[44]
  TGI: 3.68 µM
[56]
  TGI: 20.6 µM
[46]
  TGI: 5.12 µM
[47]
  TGI: 34.7 µM
[48]
  TGI: 37.9 µM
[49]
  TGI: 26.3 µM
[50]
  TGI: 21.9 µM

## CC(=O)NC1=C(C)C(=O)c2c(nc3n2CCC3OC(=O)c2ccccc2)C1=O (configuration not stated)
[51]
  TGI: 2.93 µM
[1]
  TGI: 3.44 µM
[2]
  TGI: 3.47 µM
[3]
  TGI: 4.78 µM
[4]
  TGI: 4.44 µM
[5]
  TGI: 2.95 µM
[6]
  TGI: 3.41 µM
[7]
  TGI: 5.56 µM
[8]
  TGI: 25.3 µM
[9]
  TGI: 3.48 µM
[10]
  TGI: 4.06 µM
[11]
  TGI: 5.13 µM
[12]
  TGI: 5.62 µM
[13]
  TGI: 3.1 µM
[14]
  TGI: 4.55 µM
[15]
  TGI: 7.65 µM
[16]
  TGI: 2.96 µM
[18]
  TGI: 5.28 µM
[19]
  TGI: 24.1 µM
[20]
  TGI: 3.38 µM
[21]
  TGI: 3.98 µM
[22]
  TGI: 3.12 µM
[23]
  TGI: 5.57 µM
[24]
  TGI: 14.9 µM
[25]
  TGI: 3.55 µM
[26]
  TGI: 6.3 µM
[27]
  TGI: 4.1 µM
[28]
  TGI: 3.67 µM
[29]
  TGI: 8.72 µM
[30]
  TGI: 11.6 µM
[52]
  TGI: 4.69 µM
[53]
  TGI: 5.46 µM
[31]
  TGI: 3.86 µM
[32]
  TGI: 6.17 µM
[33]
  TGI: 3.2 µM
[34]
  TGI: 6.36 µM
[35]
  TGI: 3.19 µM
[36]
  TGI: 4.46 µM
[54]
  TGI: 5.13 µM
[55]
  TGI: 6 µM
[37]
  TGI: 10.3 µM
[38]
  TGI: 3.54 µM
[39]
  TGI: 4.7 µM
[40]
  TGI: 3.4 µM
[41]
  TGI: 3.06 µM
[42]
  TGI: 12.1 µM
[43]
  TGI: 2.54 µM
[44]
  TGI: 0.528 µM
[56]
  TGI: 3.01 µM
[46]
  TGI: 2.9 µM
[47]
  TGI: 12.5 µM
[48]
  TGI: 8.51 µM
[49]
  TGI: 3.57 µM
[50]
  TGI: 4.52 µM
